Reference: ChEMBL document CHEMBL5620412, “Discovery of benzofuran-2-carboxylic acid derivatives as lymphoid tyrosine phosphatase (LYP) inhibitors for cancer immunotherapy” (Eur J Med Chem, 2023)

Molecular target: T1, Tyrosine-protein phosphatase non-receptor type 22 (Homo sapiens, UniProt Q9Y2R2)
T1 sequence (Q9Y2R2 whole entry): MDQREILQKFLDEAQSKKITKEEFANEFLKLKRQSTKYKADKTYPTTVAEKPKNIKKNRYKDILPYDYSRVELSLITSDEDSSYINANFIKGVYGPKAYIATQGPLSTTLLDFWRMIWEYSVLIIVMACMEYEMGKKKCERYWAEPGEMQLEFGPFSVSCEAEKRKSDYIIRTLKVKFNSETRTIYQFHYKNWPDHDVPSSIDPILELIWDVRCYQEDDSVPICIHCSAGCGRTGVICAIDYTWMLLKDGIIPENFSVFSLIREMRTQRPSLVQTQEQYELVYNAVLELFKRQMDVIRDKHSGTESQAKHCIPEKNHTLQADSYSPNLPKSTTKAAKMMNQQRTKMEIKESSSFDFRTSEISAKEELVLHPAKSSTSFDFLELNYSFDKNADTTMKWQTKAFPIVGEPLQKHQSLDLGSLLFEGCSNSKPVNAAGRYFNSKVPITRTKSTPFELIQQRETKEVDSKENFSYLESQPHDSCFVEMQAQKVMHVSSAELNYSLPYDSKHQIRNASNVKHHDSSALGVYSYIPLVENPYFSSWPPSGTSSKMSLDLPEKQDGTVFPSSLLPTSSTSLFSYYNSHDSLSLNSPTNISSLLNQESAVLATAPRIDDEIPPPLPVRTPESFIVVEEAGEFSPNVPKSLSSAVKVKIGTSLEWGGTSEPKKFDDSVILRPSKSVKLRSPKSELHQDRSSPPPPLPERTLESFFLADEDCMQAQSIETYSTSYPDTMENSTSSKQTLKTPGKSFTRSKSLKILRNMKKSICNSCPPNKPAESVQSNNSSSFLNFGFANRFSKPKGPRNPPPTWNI
Test: Inhibition of N-terminal His-tagged LYP catalytic domain (1 to 294 residues) (unknown origin) expressed in Escherichia coli BL21 (DE3) cells using pNPP as substrate by absorbance based plate reader analysis

IC50 | SMILES
> 20 µM | O=C(O)c1cc2cc(NS(=O)(=O)c3ccc(Cl)cc3)ccc2o1
4.36 µM | O=C(O)c1cc2cc(N(Cc3ccc(-c4ccc(Cl)cc4)cc3)S(=O)(=O)c3ccc(-c4ccccc4)cc3)ccc2o1
> 20 µM | CN(c1ccc2oc(C(=O)O)cc2c1)S(=O)(=O)c1ccc(NCCN2CCOCC2)c([N+](=O)[O-])c1
8.87 µM | O=C(O)c1cc2cc(N(Cc3ccc(-c4ccccc4)cc3)S(=O)(=O)c3ccc(-c4cccs4)cc3)ccc2o1
> 20 µM | CN(c1ccc2oc(C(=O)O)cc2c1)S(=O)(=O)c1ccc(-c2ccccc2)cc1
> 20 µM | CC(C)CN(c1ccc2oc(C(=O)O)cc2c1)S(=O)(=O)c1ccc(-c2ccccc2)cc1
6.7 µM | O=C(O)c1cc2cc(N(Cc3cccc(Br)c3)S(=O)(=O)c3ccc(NCCOc4ccccc4)c([N+](=O)[O-])c3)ccc2o1
5.56 µM | CCCCCCNc1ccc(S(=O)(=O)N(Cc2ccc(-c3ccccc3)cc2)c2ccc3oc(C(=O)O)cc3c2)cc1[N+](=O)[O-]
> 20 µM | O=C(O)c1cc2cc(N(Cc3ccc(-c4ccccc4)cc3)S(=O)(=O)c3cccc(Cl)c3)ccc2o1
> 20 µM | O=C(O)c1cc2cc(NS(=O)(=O)c3ccc(Cl)c([N+](=O)[O-])c3)ccc2o1
10.7 µM | O=C(O)c1cc2cc(N(Cc3ccc(Oc4ccccc4)cc3)S(=O)(=O)c3ccc(-c4ccccc4)cc3)ccc2o1
15.1 µM | O=C(O)c1cc2cc(N(Cc3ccc(-c4ccccc4)cc3)S(=O)(=O)c3ccccc3Cl)ccc2o1
18.7 µM | O=C(O)c1cc2cc(N(Cc3ccc(-c4ccccc4)cc3)S(=O)(=O)c3ccc(O)c([N+](=O)[O-])c3)ccc2o1
> 20 µM | O=C(O)c1cc2cc(N(Cc3ccccc3)S(=O)(=O)c3ccc(-c4ccccc4)cc3)ccc2o1
7.74 µM | O=C(O)c1cc2cc(N(Cc3ccc(-c4ccccc4)cc3)S(=O)(=O)c3ccc(Cl)nc3)ccc2o1
> 20 µM | O=C(O)c1cc2cc(N(Cc3ccccc3)S(=O)(=O)c3ccc(Cl)c([N+](=O)[O-])c3)ccc2o1
6.78 µM | O=C(O)c1cc2cc(N(Cc3ccc(-c4ccc(Cl)cc4)cc3)S(=O)(=O)c3ccc(Cl)c([N+](=O)[O-])c3)ccc2o1
18.7 µM | O=C(O)c1cc2cc(N(Cc3ccc(-c4ccccc4)cc3)S(=O)(=O)c3cc(Cl)c(F)cc3F)ccc2o1

The next lines start with the compound.

SMILES | IC50
O=C(O)c1cc2cc(N(Cc3ccc(-c4ccccc4)cc3)S(=O)(=O)c3ccc(-c4ccccc4)cc3)ccc2o1 | 5.07 µM
O=C(O)c1cc2cc(N(Cc3ccc(-c4ccccc4)cc3)S(=O)(=O)c3ccc(Cl)c([N+](=O)[O-])c3)ccc2o1 | 9.34 µM
CN(c1ccc2oc(C(=O)O)cc2c1)S(=O)(=O)c1ccc(Cl)c([N+](=O)[O-])c1 | > 20 µM
O=C(O)c1cc2cc(N(Cc3ccc(Oc4ccccc4)cc3)S(=O)(=O)c3ccc(Cl)c([N+](=O)[O-])c3)ccc2o1 | 5.67 µM
O=C(O)c1cc2cc(N(Cc3ccccc3)S(=O)(=O)c3ccc(Cl)cc3)ccc2o1 | > 20 µM
COc1ccc(-c2ccc(CN(c3ccc4oc(C(=O)O)cc4c3)S(=O)(=O)c3ccc(-c4ccccc4)cc3)cc2)cc1 | 5.47 µM
CN(c1ccc2oc(C(=O)O)cc2c1)S(=O)(=O)c1ccc(Cl)cc1 | > 20 µM
CC(C)CN(c1ccc2oc(C(=O)O)cc2c1)S(=O)(=O)c1ccc(Cl)cc1 | > 20 µM
O=C(O)c1cc2cc(N(Cc3ccccc3)S(=O)(=O)c3ccc(NCCOc4ccccc4)c([N+](=O)[O-])c3)ccc2o1 | 10.3 µM
O=C(O)c1cc2cc(N(Cc3ccc(-c4ccccc4)cc3)S(=O)(=O)c3ccc(Cl)cc3)ccc2o1 | 9.04 µM
CCCCCCNc1ccc(S(=O)(=O)N(Cc2ccccc2)c2ccc3oc(C(=O)O)cc3c2)cc1[N+](=O)[O-] | 5.03 µM
O=C(O)c1cc2cc(N(Cc3ccc(-c4ccco4)cc3)S(=O)(=O)c3ccc(-c4ccccc4)cc3)ccc2o1 | 7.25 µM
CC(C)CN(c1ccc2oc(C(=O)O)cc2c1)S(=O)(=O)c1ccc(Cl)c([N+](=O)[O-])c1 | > 20 µM
O=C(O)c1cc2cc(N(Cc3ccc(-c4ccccc4)cc3)S(=O)(=O)c3ccc(Br)cc3)ccc2o1 | 7.87 µM
O=C(O)c1cc2cc(N(Cc3ccc(-c4cccc(Cl)c4Cl)cc3)S(=O)(=O)c3ccc(Cl)c([N+](=O)[O-])c3)ccc2o1 | 5.91 µM
O=C(O)c1cc2cc(NS(=O)(=O)c3ccc(-c4ccccc4)cc3)ccc2o1 | > 20 µM
